Laboratory results taken from US4562176A, “Method and composition for treating cancer” (priority 1985, dated 1985).

Assays:
[1] = system: human lymphoblastic leukemia cells (CCRF-CEM); test: In vitro growth inhibition of CCRF-CEM cells; type: cell-based; conditions: for In Vitro (CCRF-CEM) ID50: cells in log-phase growth, suspension culture, final growth medium 5% Me2SO
Procedure: ^b Human lymphoblastic luekemia cells in logphase growth and in a
suspension culture. Compounds were dissolved in Me2 SO medium, final
growth medium contained 5% Me2 SO.
In vitro growth inhibition of the analogues were assayed against human lymphoblastic leukemia cells (CCRF-CEM) in log phase. The most cyctoxic are AMD-OZN analogues 2b and 2g and AMD-OZL analogues 4a-4c. However, compared to AMD, they are several fold less cytotoxic to CEM-cells in vitro.

[2] = system: P388 lymphocytic leukemia; test: In vivo P388 assay; design: species or system mice; conditions: at optimum dose, ip days 1,5,9; for % ILS (percent increase in life span) / MST (median survival time): CDF1 male mice; for MST (median survival time): control MST 11.0 days; for Cure (over 60 day survivors): group of 7 CDF1 male mice, average of 2 experiments
Procedure: ^c 10^6 P388 cells implanted intraperitoneally on day 0 into a
group of 7 CDF1 male mice. Drugs were administered, also ip, in 10%
Me2 SO--saline on days 1,5,9. Test solutions were kept at 0-4.degree
C., protected from light.
These analogues were tested for antitumor activity against P388 lymphocytic leukemia in male CDF1 hybrid mice (Table 6). The tumor was implanted intraperitoneally (ip) with 10^6 cells. The drugs were administered once daily on days 1, 5, 9 beginning 1 day after implantation.

| SMILES | In Vitro (CCRF-CEM) ID50 [1] [ng/mL] | % ILS (percent increase in life span) [2] [%] | MST (median survival time) [2] [days] | Cure (over 60 day survivors) [2] | cytotoxicity to CEM cells (in words) ([1]; CCRF-CEM in log phase) |
| --- | --- | --- | --- | --- | --- |
| Cc1ccc(C(=O)N[C@@H]2C(=O)N[C@H](C(C)C)C(=O)N3CCC[C@H]3C(=O)N(C)CC(=O)N(C)[C@@H](C(C)C)C(=O)O[C@@H]2C)c2c1Oc1c(c(C(=O)N[C@@H]3C(=O)N[C@H](C(C)C)C(=O)N4CCC[C@H]4C(=O)N(C)CC(=O)N(C)[C@@H](C(C)C)C(=O)O[C@@H]3C)c3nc(-c4ccccc4Cl)c(=O)oc3c1C)N2 [Compound 2c] | 1800 | 172 | 30 | 1/7 | – |
| Cc1ccc(C(=O)N[C@@H]2C(=O)N[C@H](C(C)C)C(=O)N3CCC[C@H]3C(=O)N(C)CC(=O)N(C)[C@@H](C(C)C)C(=O)O[C@@H]2C)c2c1Oc1c(c(C(=O)N[C@@H]3C(=O)N[C@H](C(C)C)C(=O)N4CCC[C@H]4C(=O)N(C)CC(=O)N(C)[C@@H](C(C)C)C(=O)O[C@@H]3C)c3nc(-c4cccc(Cl)c4)c(=O)oc3c1C)N2 [Compound 2d] | 1600 | 164 | 29 | 0/7 | – |
| Cc1ccc(C(=O)N[C@@H]2C(=O)N[C@H](C(C)C)C(=O)N3CCC[C@H]3C(=O)N(C)CC(=O)N(C)[C@@H](C(C)C)C(=O)O[C@@H]2C)c2c1Oc1c(c(C(=O)N[C@@H]3C(=O)N[C@H](C(C)C)C(=O)N4CCC[C@H]4C(=O)N(C)CC(=O)N(C)[C@@H](C(C)C)C(=O)O[C@@H]3C)c3nc(-c4ccc(Cl)cc4)c(=O)oc3c1C)N2 [Compound 2e] | 1600 | 164 | 29 | 0/7 | – |
| Cc1ccc(C(=O)N[C@@H]2C(=O)N[C@H](C(C)C)C(=O)N3CCC[C@H]3C(=O)N(C)CC(=O)N(C)[C@@H](C(C)C)C(=O)O[C@@H]2C)c2c1Oc1c(c(C(=O)N[C@@H]3C(=O)N[C@H](C(C)C)C(=O)N4CCC[C@H]4C(=O)N(C)CC(=O)N(C)[C@@H](C(C)C)C(=O)O[C@@H]3C)c3nc(-c4ccc(Cl)cc4Cl)c(=O)oc3c1C)N2 [Compound 2f] | 3200 | 155 | 28 | 0/7 | – |
| Cc1ccc(C(=O)N[C@@H]2C(=O)N[C@H](C(C)C)C(=O)N3CCC[C@H]3C(=O)N(C)CC(=O)N(C)[C@@H](C(C)C)C(=O)O[C@@H]2C)c2c1Oc1c(c(C(=O)N[C@@H]3C(=O)N[C@H](C(C)C)C(=O)N4CCC[C@H]4C(=O)N(C)CC(=O)N(C)[C@@H](C(C)C)C(=O)O[C@@H]3C)c3nc(-c4c(F)c(F)c(F)c(F)c4F)c(=O)oc3c1C)N2 [Compound 2g] | 640 | 186 | 31.5 | 1/7 | most cyctoxic |
| CCCCCCc1nc2c(C(=O)N[C@@H]3C(=O)N[C@H](C(C)C)C(=O)N4CCC[C@H]4C(=O)N(C)CC(=O)N(C)[C@@H](C(C)C)C(=O)O[C@@H]3C)c3c(c(C)c2oc1=O)Oc1c(C)ccc(C(=O)N[C@@H]2C(=O)N[C@H](C(C)C)C(=O)N4CCC[C@H]4C(=O)N(C)CC(=O)N(C)[C@@H](C(C)C)C(=O)O[C@@H]2C)c1N3 [Compound 2h] | 2080 | 127 | 25 | 0/7 | – |
| Cc1ccc(C(=O)N[C@@H]2C(=O)N[C@H](C(C)C)C(=O)N3CCC[C@H]3C(=O)N(C)CC(=O)N(C)[C@@H](C(C)C)C(=O)O[C@@H]2C)c2c1Oc1c(c(C(=O)N[C@@H]3C(=O)N[C@H](C(C)C)C(=O)N4CCC[C@H]4C(=O)N(C)CC(=O)N(C)[C@@H](C(C)C)C(=O)O[C@@H]3C)c3nc(-c4ccc5ccccc5c4)c(=O)oc3c1C)N2 [Compound 2i, 3-(2-NAPHTHYL)-10,12-DIMETHYL-2H,6H-OXAZINO[3,2-b]PHENOXAZINE-2-ONE 5,7-BIS[CARBONYL-L-THREONYL-D-VALYL-L-PROLYLSARCOSYL-L-N-METHYLVALINE-(THR EONINE HYDROXYL)] LACTONE] | 1000 | 136 | 26 | 0/7 | – |
